Reference: patent US10428022B2, “Iminosugars useful for the treatment of viral diseases” (Emergent Virology, LLC, priority 2014, dated 2019)

Experiments:
[1] = In vivo pharmacokinetics in mouse; settings: plasma
[2] = Aqueous solubility in acidified water; assay type: physicochemical; settings: aqueous buffer; in acidified water pH~4
[3] = In vivo pharmacokinetics in guinea pig; settings: plasma
[4] = tested on: dengue virus (DENV serotype 2, strain New Guinea C); assay: microbe, parasite or virus in culture; assay type: cell-based; settings: DENV2, 120 h, virus yield reduction in Vero cells, 5 days
[5] = tested on: Venezuelan Equine Encephalitis Virus (VEEV TC-83 stain); assay: microbe, parasite or virus in culture; assay type: cell-based; settings: Vero, 72 h, read-out: IC50 Venezuelan Equine Encephalitis TC-83 (VEEV)
[6] = CellTiter-Glo Luminescent Cell Viability Assay (cytotoxicity); assay type: cell-based; settings: African green monkey; Vero cells, 3-5 days in culture
Experimental: Cytotoxicity: To determine the cytotoxicity of the compounds in Vero cells, the CellTiter-Glo Luminescent Cell Viability Assay (Promega) was used. The compounds were tested at 6-8 concentrations in three replicates. Control conditions include vehicle-only treated cells to set 100% surviving cells, DMSO-killed cells as a cell death-inducing control, and no cells for 0% surviving cells. Cytotoxicity is measured after 3-5 days in culture by the change/decrease in relative light units (RLUs) in each sample which reflects the amount of ATP present (an indicator of metabolically active cells).
The 50% cellular cytotoxicity (CC50) value is calculated based on the RLUs of the compound-treated samples using vehicle-only control as 100% survival and no cells as 0% survival.

[7] = A-B Efflux (Caco2) (Cerep); assay type: in vitro ADME; settings: human, Caco-2
Experimental: (§1) Assays for drug likeness (solubility, microsomal stability, plasma protein binding, A-B efflux, cytochrome CYP450 3A4, hERG binding, and Ames) were carried out by Cerep (Washington USA, and France) using standard protocols for in vitro testing. Assay protocols are provided online at http://www.cerep.fecerep/users/pages/catalog/profiles/catalog.asp and Cerep standard procedures and concentrations were used for all assays.

[8] = Human plasma protein binding (Cerep); assay type: in vitro ADME
Experimental: as §1

[9] = Ames (Cerep); settings: with or without S9 activation
Experimental: as §1

[10] = Human microsomal stability (Cerep); assay type: in vitro ADME; settings: human microsomes; read-out: Human microsomal stability: t½
Experimental: as §1

[11] = Aqueous solubility in gastric and intestinal fluids (Cerep); assay type: physicochemical
Experimental: as §1

[12] = molecular target: T1, CYP3A4 (Homo sapiens, UniProt P08684); assay: CYP450 3A4 inhibition (Cerep); assay type: in vitro ADME
T1 construct: Cerep
T1 sequence (P08684 whole entry): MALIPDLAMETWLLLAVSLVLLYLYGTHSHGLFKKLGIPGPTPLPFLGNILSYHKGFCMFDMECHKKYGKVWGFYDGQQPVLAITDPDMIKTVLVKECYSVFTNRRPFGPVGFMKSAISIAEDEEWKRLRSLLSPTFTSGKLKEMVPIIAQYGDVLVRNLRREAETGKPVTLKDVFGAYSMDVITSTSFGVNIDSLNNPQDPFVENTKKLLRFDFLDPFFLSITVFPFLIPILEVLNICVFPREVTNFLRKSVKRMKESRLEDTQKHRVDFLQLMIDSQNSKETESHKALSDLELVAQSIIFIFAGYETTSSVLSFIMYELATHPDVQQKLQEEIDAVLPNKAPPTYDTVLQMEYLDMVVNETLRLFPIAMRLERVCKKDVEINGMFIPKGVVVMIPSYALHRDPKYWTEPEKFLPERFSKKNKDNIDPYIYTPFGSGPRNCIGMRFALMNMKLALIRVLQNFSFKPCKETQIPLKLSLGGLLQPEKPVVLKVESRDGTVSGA
Experimental: as §1

[13] = In vivo pharmacokinetics and oral bioavailability in rat; design: species or system male Sprague-Dawley rats; settings: male, Sprague-Dawley, plasma
Experimental: In vivo pharmacokinetic parameters and oral bioavailability for UV-0060 was determined by Eurofins (Cerep Panlabs, Taiwan). A pharmacokinetic study following oral and intravenous administrations was performed using male Sprague-Dawley rats. Test article was formulated in 2% DMSO/0.9% NaCl and administered orally (PO) at 10 mg/kg and intravenously (IV) at 5 mg/kg to groups of 3 rats. The dosing volume was 10 mL/kg for PO and 5 mL/kg for IV. Rats weighing 220±20 g were used. Blood samples were harvested at 3, 10, 30, 60, 120, 240, 360, 720 and 1440 minutes after intravenous injection and at 10, 30, 60, 120, 240, 360, 720 and 1440 minutes after oral administration. Blood was collected in tubes coated with lithium heparin, mixed gently, then kept on ice and centrifuged at 2,500×g for 15 minutes at 4° C., within 1 hour of collection. The plasma was harvested and kept frozen at −80° C. until further processing. A plasma calibration curve from 3-10000 ng/mL was generated using oxybutynin as internal standard. Aliquots of drug-free plasma were spiked with the test compound at the specified concentration levels. Plasma samples were processed using acetonitrile precipitation and analyzed by HPLC/MS/MS. The spiked plasma samples were processed together with the unknown plasma samples using the same procedure. HPLC/MS/MS analysis was carried out with electrospray ionization in positive ion mode with multiple reaction monitoring. HPLC column was Agilent Poroshell 120 EC-C18 column 2.7 μm (3.0×50 mm, 23° C.) with an acetonitrile/water/formic acid mobile phase gradient. Standards data were fitted linearly with a 1/x2 weighting.

[14] = Mouse, single dose, tested IV, oral routes
[15] = Guinea pig, single dose, tested IV, SQ, IM routes

[N-]=[N+]=Nc1ccc(NCCCCCCN2C[C@H](O)[C@@H](O)[C@H](O)[C@H]2CO)c([N+](=O)[O-])c1 [UV-5]
half-life ([1]; mouse, Mouse, single dose, tested IV, oral routes, read-out: T1/2): 4.09 to 8.96 h | half-life ([1]; mouse, mice, read-out: Plasma t½): ~4 h | bioavailability ([1]; mouse, mice, oral): 80% | Cmax [1, 14]: 14400 ng/mL | Tmax [1, 14]: 1 h | solubility [2]: > 112 mg/mL | clearance ([3]; guinea pig): 233 mL/min/kg | half-life ([3]; guinea pig, Guinea pig, single dose, tested IV, SQ, IM routes, read-out: T½): 1.62 to 3.99 h | half-life ([3]; guinea pig, guinea pig, read-out: Plasma t½): 1.62 h | Vd ([3]; guinea pig, read-out: Vss): 16.9 L/kg | bioavailability ([3]; other: IM, Guinea pig, IM, SC): 187 to 198% | Cmax [3, 15]: 2320 to 3790 ng/mL | Tmax [3, 15]: 0.75 to 1.13 h

OC[C@@H]1[C@@H](O)[C@H](O)[C@@H](O)CN1CCCCCCCCc1ccco1 [UV-30, (2R,3R,4R,5S)-1-(8-(furan-2-yl)octyl)-2-(hydroxymethyl)piperidine-3,4,5-triol]
IC50 [4]: 7 µM | IC50 [5]: 14 µM | CC50 [6]: ≥ 125 µM

O=[N+]([O-])c1cc(-n2nccn2)ccc1NCCCCCCN1C[C@H](O)[C@@H](O)[C@H](O)[C@H]1CO [UV-0060]
Papp A→B [7]: ~0.3 ×10⁻⁶ cm/s | fraction unbound at 10 microM [8]: 0.12 | Ames [9]: Ames: negative with or without S9 | IC50 [4]: 5 µM | half-life [10]: > 1 h | solubility ([11]; gastric fluid, simulated gastric fluid, read-out: Aqueous solubility in gastric fluid): > 200 µM | solubility ([11]; intestinal fluid, fassgf or other biorelevant, read-out: Aqueous solubility in intestinal fluid): > 200 µM | inhibition at 10 µM [12]: 0.2% | IC50 [5]: 94.1 µM | bioavailability ([13]; PO 10 mg/kg vs IV 5 mg/kg): 6% | clearance ([13]; single dose, IV 5 mg/kg): 72.9 mL/min/kg | half-life ([13]; single dose, IV 5 mg/kg, read-out: T1/2 (IV)): 2.8 h | Tmax ([13]; single dose, PO 10 mg/kg): 2.2 h | half-life ([13]; single dose, PO 10 mg/kg, read-out: T1/2 (PO)): 2.2 h | CC50 [6]: 245 µM
